Structures can show the parent of a compound that is named as a salt.
Each compound was assayed against ATM (Homo sapiens (Human), UniProt Q13315) (assay: ATM in Cell Western Assay (pKAP1 in etoposide-treated MCF-7 cells)). Settings: MCF-7 cells, etoposide 100 μM, 1 hr, pKAP1 readout.
Format: cell-based
In short: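 Cells received compounds in a 10-dose, 3-fold series from a 1 μM final top concentration, then 100 μM etoposide, for 1 hr at 37° C. They were then fixed with paraformaldehyde and permeabilized with 0.1% Triton X-100. After immunostaining, plates were scanned on an infrared imager.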

ATM, sequence (Q13315 whole entry): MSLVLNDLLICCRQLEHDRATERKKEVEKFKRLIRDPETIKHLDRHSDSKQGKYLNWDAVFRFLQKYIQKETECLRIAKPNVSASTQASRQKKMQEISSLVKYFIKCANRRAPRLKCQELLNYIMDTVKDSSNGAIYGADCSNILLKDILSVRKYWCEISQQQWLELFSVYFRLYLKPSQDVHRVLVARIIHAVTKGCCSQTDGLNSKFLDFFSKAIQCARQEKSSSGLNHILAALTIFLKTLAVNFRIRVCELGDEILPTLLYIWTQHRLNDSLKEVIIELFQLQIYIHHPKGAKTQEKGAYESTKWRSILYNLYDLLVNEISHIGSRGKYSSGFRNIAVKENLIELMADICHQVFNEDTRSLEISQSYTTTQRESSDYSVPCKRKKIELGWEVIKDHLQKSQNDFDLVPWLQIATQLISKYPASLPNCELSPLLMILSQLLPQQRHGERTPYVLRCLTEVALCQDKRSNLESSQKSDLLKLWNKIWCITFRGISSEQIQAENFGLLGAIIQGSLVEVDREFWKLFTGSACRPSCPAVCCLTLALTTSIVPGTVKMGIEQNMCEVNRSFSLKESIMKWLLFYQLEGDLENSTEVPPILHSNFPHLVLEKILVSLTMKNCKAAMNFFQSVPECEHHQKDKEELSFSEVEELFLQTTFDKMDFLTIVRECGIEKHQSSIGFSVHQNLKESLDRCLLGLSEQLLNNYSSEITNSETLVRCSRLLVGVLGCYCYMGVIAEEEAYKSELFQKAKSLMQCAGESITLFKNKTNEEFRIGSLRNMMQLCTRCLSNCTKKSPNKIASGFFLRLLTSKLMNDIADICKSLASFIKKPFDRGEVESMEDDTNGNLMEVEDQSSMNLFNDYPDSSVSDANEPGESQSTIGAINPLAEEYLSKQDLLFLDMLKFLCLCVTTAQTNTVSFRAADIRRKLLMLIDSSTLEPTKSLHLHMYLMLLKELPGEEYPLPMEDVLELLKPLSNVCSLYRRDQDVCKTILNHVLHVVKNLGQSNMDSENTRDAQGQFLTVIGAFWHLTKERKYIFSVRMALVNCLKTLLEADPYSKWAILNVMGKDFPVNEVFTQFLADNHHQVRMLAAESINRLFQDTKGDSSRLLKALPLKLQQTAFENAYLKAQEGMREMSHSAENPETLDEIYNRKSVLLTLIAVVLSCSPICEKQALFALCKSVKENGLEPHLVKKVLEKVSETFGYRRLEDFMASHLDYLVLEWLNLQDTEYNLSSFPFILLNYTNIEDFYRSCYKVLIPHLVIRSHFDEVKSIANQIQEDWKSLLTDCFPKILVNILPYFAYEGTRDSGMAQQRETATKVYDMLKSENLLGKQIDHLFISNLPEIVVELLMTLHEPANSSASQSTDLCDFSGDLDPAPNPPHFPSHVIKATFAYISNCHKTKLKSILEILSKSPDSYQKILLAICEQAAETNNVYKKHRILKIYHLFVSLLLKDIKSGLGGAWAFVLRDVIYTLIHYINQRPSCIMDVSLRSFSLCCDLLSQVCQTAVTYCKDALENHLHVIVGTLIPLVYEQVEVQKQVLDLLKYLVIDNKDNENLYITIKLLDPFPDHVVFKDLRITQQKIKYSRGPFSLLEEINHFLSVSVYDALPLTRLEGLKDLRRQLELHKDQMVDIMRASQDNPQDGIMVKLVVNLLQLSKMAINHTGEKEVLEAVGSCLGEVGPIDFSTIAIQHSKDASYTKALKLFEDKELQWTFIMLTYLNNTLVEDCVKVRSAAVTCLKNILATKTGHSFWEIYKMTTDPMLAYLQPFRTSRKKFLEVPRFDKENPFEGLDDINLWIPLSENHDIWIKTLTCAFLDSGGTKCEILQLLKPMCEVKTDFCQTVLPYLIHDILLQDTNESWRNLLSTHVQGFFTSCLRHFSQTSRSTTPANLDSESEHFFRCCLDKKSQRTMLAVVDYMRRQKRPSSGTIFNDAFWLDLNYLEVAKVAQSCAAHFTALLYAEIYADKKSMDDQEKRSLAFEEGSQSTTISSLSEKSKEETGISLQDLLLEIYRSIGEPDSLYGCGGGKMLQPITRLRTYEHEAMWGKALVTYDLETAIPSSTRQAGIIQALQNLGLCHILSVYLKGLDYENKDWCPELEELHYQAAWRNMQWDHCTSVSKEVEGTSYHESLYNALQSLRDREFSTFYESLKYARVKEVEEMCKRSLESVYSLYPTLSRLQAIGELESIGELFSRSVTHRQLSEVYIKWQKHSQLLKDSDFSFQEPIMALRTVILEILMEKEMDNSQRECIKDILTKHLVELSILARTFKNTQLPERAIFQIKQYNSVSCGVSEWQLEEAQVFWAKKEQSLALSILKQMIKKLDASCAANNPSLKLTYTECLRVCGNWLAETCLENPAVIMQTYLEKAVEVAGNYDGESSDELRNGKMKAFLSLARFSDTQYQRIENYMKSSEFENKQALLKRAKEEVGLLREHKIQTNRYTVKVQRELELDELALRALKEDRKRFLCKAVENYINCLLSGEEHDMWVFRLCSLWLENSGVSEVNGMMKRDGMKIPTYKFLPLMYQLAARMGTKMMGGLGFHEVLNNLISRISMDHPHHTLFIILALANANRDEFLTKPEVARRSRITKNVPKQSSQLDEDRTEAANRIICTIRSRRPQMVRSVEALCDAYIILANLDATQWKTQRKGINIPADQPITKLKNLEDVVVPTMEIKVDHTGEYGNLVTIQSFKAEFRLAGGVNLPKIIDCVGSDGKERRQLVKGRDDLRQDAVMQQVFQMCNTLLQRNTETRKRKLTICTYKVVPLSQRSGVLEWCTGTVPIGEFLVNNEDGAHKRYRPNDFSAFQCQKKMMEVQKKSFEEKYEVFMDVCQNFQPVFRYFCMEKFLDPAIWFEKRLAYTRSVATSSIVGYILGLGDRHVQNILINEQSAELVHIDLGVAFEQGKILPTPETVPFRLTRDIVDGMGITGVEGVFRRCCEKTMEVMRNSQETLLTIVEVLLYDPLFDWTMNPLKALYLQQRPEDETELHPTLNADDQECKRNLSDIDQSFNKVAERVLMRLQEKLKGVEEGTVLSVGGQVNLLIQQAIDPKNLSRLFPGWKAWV

IC50 [nM]	SMILES
> 100	CN1C(=O)C2(CCC2)c2c1cnc1ccc(-c3cnc(OCC(CO)N(C)C)c(NS(C)(=O)=O)c3)cc21 (stereo not shown) [Example 296, N-(2-(2-(dimethylamino)-3-hydroxypropoxy)-5-(3′-methyl-2′-oxo-2′,3′-dihydrospiro[cyclobutane-1,1′-pyrrolo[2,3-c]quinolin]-8′-yl)pyridin-3-yl)methanesulfonamide]
1 to 100	CN(C)CCCOc1ncc(-c2ccc3ncc4c(c3c2)C2(CC2)C(=O)N4C)cc1NS(=O)(=O)c1cccnc1 [Example 85]
1 to 100	CN1C(=O)C2(CCC2)c2c1cnc1ccc(-c3cnc(OCCCN4CCNCC4)c(NS(C)(=O)=O)c3)cc21 [Example 300, N-(5-(3′-Methyl-2′-oxo-2′,3′-dihydrospiro[cyclobutane-1,1′-pyrrole[2,3-c]quinolin]-8′-yl)-2-(3-(piperazin-1-yl)propoxy)pyridin-3-yl) methanesulfonamide]
> 100	CC(Oc1cc(-c2ccc3ncc4c(c3c2)C2(CC2)C(=O)N4C)cnc1OCCCN(C)C)c1ccccc1 (stereo not shown) [Example 95, 8′-(6-(3-(Dimethylamino)propoxy)-5-(1-phenylethoxy)pyridin-3-yl)-3′-methylspiro[cyclopropane-1,1′-pyrrolo[2,3-c]quinolin]-2′(3′-H)-one]
> 100	CN1C(=O)C2(CC2)c2c1cnc1ccc(-c3ccc4[nH]c(=O)ccc4c3)cc21 [Example 40]
1 to 100	CN(C)CCCNc1ncc(-c2ccc3ncc4c(c3c2)C2(CCC2)C(=O)N4C)cc1NS(C)(=O)=O [Example 259, N-(2-((3-(Dimethylamino)propyl)amino)-5-(3′-methyl-2′-oxo-2′,3′-dihydrospiro[cyclobutane-1,1′-pyrrolo[2,3-c]quinolin]-8′-yl)pyridin-3-yl)methanesulfonamide]
1 to 100	Cc1cc2ncc3c(c2cc1-c1cnc(N2CC(N(C)C)C2)c(NS(C)(=O)=O)c1)C1(CCC1)C(=O)N3C [Example 335, N-(5-(3′-,7′-Dimethyl-2′-oxo-2′,3′-dihydrospiro[cyclobutane-1,1′-pyrrolo[2,3-c]quinolin]-8′-yl)-2-(3-(dimethylamino)azetidin-1-yl)pyridin-3-yl)methanesulfonamide]
> 100	Cc1ccc(S(=O)(=O)N(C)c2cc(-c3ccc4ncc5c(c4c3)C3(CCC3)C(=O)N5C)cnc2OCCCN2CCCCC2)cn1 [Example 191, N,6-Dimethyl-N-(5-(3′-methyl-2′-oxo-2′,3′-dihydrospiro [cyclobulane-1,1′-pyrrolo[2,3-c]quinolin]-8′-yl)-2-(3-(piperidin-1-yl)propoxy)pyridin-3-yl)pyridine-3-sulfonamide 2,2,2-trifluoroacetate]

Same assay, conditions: pKAP1 in etoposide-treated MCF-7 cells

IC50 [nM]	SMILES
1 to 100	CC(C)NCCOc1ncc(-c2ccc3ncc4c(c3c2F)C2(CCC2)C(=O)N4C)cc1NS(C)(=O)=O [Example 556, N-(5-(9′-Fluoro-3′-methyl-2′-oxo-2′,3′-dihydrospiro[cyclobutane-1,1′-pyrrolo[2,3-c]quinolin]-8′-yl)-2-(2-(isopropylamino)ethoxy)pyridin-3-yl)methanesulfonamide hydrochloride]
> 100	CC(C)NCCOc1ncc(-c2cc3c4c(cnc3cc2F)N(C)C(=O)C42CN(C(N)=O)C2)cc1NS(C)(=O)=O [Example 517, 7′-Fluoro-8′-(6-(2-(isopropylamino)ethoxy)-5-(methylsulfonamido)pyridin-3-yl)-3′-methyl-2′-oxo-2′,3′-dihydrospiro[azetidine-3,1′-pyrrolo[2,3-c]quinoline]-1-carboxamide]
> 100	CNC[C@H]1C[C@]2(C1)C(=O)N(C)c1cnc3cc(F)c(-c4cnc(OCCNC(C)C)c(NS(C)(=O)=O)c4)cc3c12 [Example 454, cis-N-(5-(7′-Fluoro-3′-methyl-3-((methylamino)methyl)-2′-oxo-2′,3′-dihydrospiro[cyclobutane-1,1′-pyrrolo[2,3-c]quinolin]-8′-yl)-2-(2-(isopropylamino)ethoxy)pyridin-3-yl)methanesulfonamide]
1 to 100	CN(C)CCCN(C)c1ncc(-c2ccc3ncc4c(c3c2)C2(CCC2)C(=O)N4C)cc1NS(C)(=O)=O [Example 362, N-(2-((3-(Dimethylamino)propyl)(methyl)amino)-5-(3′-methyl-2′-oxo-2′,3′-dihydrospiro[cyclobutane-1,1′-pyrrolo[2,3-c]quinolin]-8′-yl)pyridin-3-yl)methanesulfonamide hydrochloride]
> 100	CN1C(=O)C2(CCC2)c2c1cnc1ccc(-c3cnc(N4CC5CC(C4)N5)c(NS(C)(=O)=O)c3)cc21 [Example 360, N-(2-(3,6-Diazabicyclo[3.1.1]heptan-3-yl)-5-(3′-methyl-2′-oxo-2′,3′-dihydrospiro[cyclobutane-1,1′-pyrrolo[2,3-c]quinolin]-8′-yl)pyridin-3-yl) methanesulfonamide formate]
1 to 100	CC(C)NCCOc1ncc(-c2cc3c(cc2F)ncc2c3[C@]3(C[C@H](N4CCOCC4)C3)C(=O)N2C)cc1NS(C)(=O)=O [Example 471, cis-N-(5-(7′-Fluoro-3′-methyl-3-morpholino-2-oxo-2′,3′-dihydrospiro[cyclobutane-1,1′-pyrrolo[2,3-c]quinolin]-8′-yl)-2-(2-(isopropylamino)ethoxy)pyridin-3-yl)methanesulfonamide]
> 100	CC(C)NCCOc1ncc(-c2cc3c4c(cnc3cc2F)N(C)C(=O)C42CN([C@H]3CC[C@H](O)CC3)C2)cc1NS(C)(=O)=O [Example 505, N-(5-(7′-Fluoro-1-(trans-4-hydroxycyclohexyl)-3′-methyl-2′-oxo-2′,3′-dihydrospiro[azetidine-3,1′-pyrrolo[2,3-c]quinolin]-8′-yl)-2-(2-(isopropylamino)ethoxy)pyridin-3-yl)methanesulfonamide]
> 100	CC(C)NCCOc1ncc(-c2cc3c(cc2F)ncc2c3[C@]3(C[C@H](n4ccccc4=O)C3)C(=O)N2C)cc1NS(C)(=O)=O [Example 475, cis-N-(5-(7′-Fluoro-3′-methyl-2′-oxo-3-(2-oxopyridin-1(2H)-yl)-2′,3′-dihydrospiro[cyclobutane-1,1′-pyrrolo[2,3-c]quinolin]-8′-yl)-2-(2-(isopropylamino)ethoxy)pyridin-3-yl)methanesulfonamide]
1 to 100	CC(C)NCCOc1ncc(-c2cc3c(cc2F)ncc2c3[C@]3(C[C@@H](Oc4ccccc4)C3)C(=O)N2C)cc1NS(C)(=O)=O [Example 401, trans-N-(5-(7′-Fluoro-3′-methyl-2′-oxo-3-phenoxy-2′,3′-dihydrospiro[cyclobutane-1,1′-pyrrolo[2,3-c]quinolin]-8′-yl)-2-(2-(isopropylamino)ethoxy)pyridin-3-yl)methanesulfonamide]
1 to 100	CC(C)NCCOc1ncc(-c2cc3c(cc2F)ncc2c3[C@]3(C[C@H](N4CCCCC4)C3)C(=O)N2C)cc1NS(C)(=O)=O [Example 469, cis-N-(5-(7′-Fluoro-3′-methyl-2′-oxo-3-(piperidin-1-yl)-2′,3′-dihydrospiro[cyclobutane-1,1′-pyrrolo[2,3-c]quinolin]-8′-yl)-2-(2-(isopropylamino)ethoxy)pyridin-3-yl)methanesulfonamide]
> 100	CC(C)NCCOc1ncc(-c2cc3c4c(cnc3cc2F)N(C)C(=O)C42CN([C@H]3CC[C@@H](O)CC3)C2)cc1NS(C)(=O)=O [Example 504, N-(5-(7′-Fluoro-1-(cis-4-hydroxycyclohexyl)-3′-methyl-2′-oxo-2′,3′-dihydrospiro[azetidine-3,1′-pyrrolo[2,3-c]quinolin]-8′-yl)-2-(2-(isopropylamino)ethoxy)pyridin-3-yl)methanesulfonamide]
1 to 100	CC(C)NCCOc1ncc(-c2cc3c(cc2F)ncc2c3[C@]3(C[C@H](N(C)C)C3)C(=O)N2C)cc1NS(C)(=O)=O [Example 465, cis-N-(5-(3-(Dimethylamino)-7′-fluoro-3′-methyl-2′-oxo-2′,3′-dihydrospiro[cyclobutane-1,1′-pyrrolo[2,3-c]quinolin]-8′-yl)-2-(2-(isopropylamino)ethoxy)pyridin-3-yl)methanesulfonamide]
1 to 100	CC(C)NCCOc1ncc(-c2cc3c4c(cnc3cc2F)N(C)C(=O)C42COC2)cc1NS(C)(=O)=O [Example 555, N-(5-(7′-Fluoro-3′-methyl-2′-oxo-2′,3′-dihydrospiro[oxetane-3,1′-pyrrolo[2,3-c]quinolin]-8′-yl)-2-(2-(isopropylamino)ethoxy)pyridin-3-yl)methanesulfonamide hydrochloride]
1 to 100	CC(C)NCCOc1ncc(-c2cc3c(cc2F)ncc2c3[C@]3(C[C@@H](N4CCCCC4)C3)C(=O)N2C)cc1NS(C)(=O)=O [Example 470, trans-N-{5-(7′-Fluoro-3′-methyl-2′-oxo-3-(piperidin-1-yl)-2′,3′-dihydrospiro[cyclobutane-1,1′-pyrrolo[2,3-c]quinolin]-8′-yl)-2-(2-(isopropylamino)ethoxy)pyridin-3-yl)methanesulfonamide hydrochloride]
> 100	CC(C)NCCOc1ncc(-c2cc3c4c(cnc3cc2F)N(C)C(=O)C42CCC2)cc1NS(=O)(=O)N1CC(C#N)C1 [Example 372, 3-Cyano-N-(5-(7′-fluoro-3′-methyl-2′-oxo-2′,3′-dihydrospiro[cyclobutane-1,1′-pyrrolo[2,3-c]quinolin]-8′-yl)-2-(2-(isopropylamino)ethoxy)pyridin-3-yl)azetidine-1-sulfonamide]
> 100	CC(C)NCCOc1ncc(-c2cc3c(cc2F)ncc2c3[C@]3(C[C@H](c4ccc(=O)[nH]c4)C3)C(=O)N2C)cc1NS(C)(=O)=O [Example 442, cis-N-(5-(7′-Fluoro-3′-methyl-2′-oxo-3-(6-oxo-1,6-dihydropyridin-3-yl)-2′,3′-dihydrospiro[cyclobutane-1,1′-pyrrolo[2,3-c]quinolin]-8′-yl)-2-(2-(isopropylamino)ethoxy)pyridin-3-yl)methanesulfonamide]
> 100	CN(C)CCN(C)c1ncc(-c2cc3c4c(cnc3cc2F)N(C)C(=O)C42CCC2)cc1NS(C)(=O)=O [Example 363, N-(2-((2-(Dimethylamino)ethyl)(methyl)amino)-5-(7′-fluoro-3′-methyl-2′-oxo-2′,3′-dihydrospiro[cyclobutane-1,1′-pyrrolo[2,3-c]quinolin]-8′-yl)pyridin-3-yl)methanesulfonamide hydrochloride]

— patent publication US12187742B2 (XRAD Therapeutics, Inc., priority 2018, dated 2025)
